Reference: ChEMBL document CHEMBL1156895 (Bioorg Med Chem Lett, 2010)
Active and inactive are the calls of the source. The rule behind the calls is not given here.

Key:
[1] = Induction of NO release in phosphate buffer at pH 7.4; format: physicochemical
[2] = biological target: T1, Prostaglandin G/H synthase 1 (Ovis aries, UniProt P05979)
T1 sequence (P05979 whole entry): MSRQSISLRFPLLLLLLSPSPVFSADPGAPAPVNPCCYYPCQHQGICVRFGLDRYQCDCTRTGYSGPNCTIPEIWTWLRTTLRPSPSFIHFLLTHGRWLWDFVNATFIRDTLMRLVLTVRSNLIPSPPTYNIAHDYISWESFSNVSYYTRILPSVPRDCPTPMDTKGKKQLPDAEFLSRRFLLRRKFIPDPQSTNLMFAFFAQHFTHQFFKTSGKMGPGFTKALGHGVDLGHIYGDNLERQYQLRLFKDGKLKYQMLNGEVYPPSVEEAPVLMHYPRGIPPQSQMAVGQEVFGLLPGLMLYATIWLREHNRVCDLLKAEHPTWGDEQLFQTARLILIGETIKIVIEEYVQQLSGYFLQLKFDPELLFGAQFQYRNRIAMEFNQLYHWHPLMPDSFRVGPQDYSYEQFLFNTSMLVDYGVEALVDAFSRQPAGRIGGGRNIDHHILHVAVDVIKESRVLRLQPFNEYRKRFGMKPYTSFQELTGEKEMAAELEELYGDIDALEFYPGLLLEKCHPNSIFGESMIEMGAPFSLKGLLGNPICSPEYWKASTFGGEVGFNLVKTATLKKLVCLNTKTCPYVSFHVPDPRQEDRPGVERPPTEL
Description: Inhibition of ovine COX1 by enzyme immunoassay

Rattus norvegicus [3] = species on record: Rattus norvegicus; test: animal or person; settings: po, read-out: INH
[4] = Induction of NO release in presence of 5 mM L-cysteine; format: physicochemical
Rattus norvegicus [5] = test: Antiinflammatory activity in po dosed rat assessed as inhibition of carrageenan-induced paw edema; format: functional
[6] = biological target: T2, Prostaglandin G/H synthase 1 (Ovis aries) (UniProt P05979); test: Inhibition of ovine COX1 at 100 uM by enzyme immunoassay
T2 sequence (whole entry): T1 sequence (P05979 whole entry)

[7] = Selectivity ratio of IC50 for ovine COX1 to IC50 for human recombinant COX2
Rattus norvegicus [8] = species on record: Rattus norvegicus; settings: 100 mg/kg

inhibition [6]	Ratio IC50 [7]	SMILES	Activity [1] [%]	IC50 [2] [µM]	inhibition in vivo at 100 mg/kg (Rattus norvegicus [3]) [%]	Activity [4] [%]	ED50 (Rattus norvegicus [5]) [mg/kg]	inhibition (Rattus norvegicus [8])
–	–	NS(=O)(=O)c1ccc(-n2nc(C(F)(F)F)cc2C2CCN(CCCCO[N+](=O)[O-])CC2)cc1	2.4	19.8	9	3.1	–	–
–	–	CC(C)Cc1ccc(C(C)C(=O)O)cc1 (stereo unspecified) [IBUPROFEN]	–	–	–	–	67.4	–
inactive	> 6	CS(=O)(=O)c1ccc(-n2nc(C(F)(F)F)cc2C2CCN(CCCCO[N+](=O)[O-])CC2)cc1	3.8	> 100	–	8.4	132	–
–	–	O=[N+]([O-])OCC(CO[N+](=O)[O-])O[N+](=O)[O-] [NITROGLYCERIN]	2.8	–	–	10.1	–	–
–	–	CS(=O)(=O)c1ccc(-n2nc(C(F)(F)F)cc2C2=CCN(CCCCO[N+](=O)[O-])CC2)cc1	3.1	34.7	–	3.8	118	–
–	–	NS(=O)(=O)c1ccc(-n2nc(C(F)(F)F)cc2C2=CCN(CCCCO[N+](=O)[O-])CC2)cc1	5.8	16.2	–	7.1	–	inactive
